# Values quoted from earlier work, collected in patent publication US9267111B2, “Methods of treating female subjects in need of in vitro fertilization” (The General Hospital Corporation, priority 2004, dated 2016).
# Test system: germ line stem cells and spermatogonia in irradiated testicular tissue
# Conditions: versus untreated tissues
smiles,measurement,value
"CCCCCCCCCCCCC/C=C/[C@@H](O)[C@@H](N)COP(=O)(O)O [S1P, Sphingosine-1-phosphate]",numbers of primary spermatocytes and spermatogonia,higher than untreated tissues
